Where two headings read alike, the source gives them in different places.
What was measured:
SARS-CoV-2 nsp13 [1] = biological target: T1, SARS-CoV-2 nsp13 (Severe acute respiratory syndrome coronavirus 2, UniProt P0DTD1); assay: Incubation-dependent potency of 5c on nsp13 (inhibition type); format: biochemical; conditions: for IC50: read-out: IC50 at time-point
SARS-CoV-2 nsp13 [2] = biological target: T1, SARS-CoV-2 nsp13; assay: SARS-CoV-2 nsp13 unwinding-associated activity (fluorescence, BSA-TCEP); format: biochemical; conditions: SARS-CoV-2 nsp13-associated unwinding activity, from dose-response curves
[3] = Cellular toxicity assay (GFP signal as viability); format: cell-based; conditions: African green monkey; Vero cells; read-out: CC50, concentration required to reduce Vero cells viability by 50%
Method: Vero E6-green fluorescent protein (GFP) cells (Janssen Pharmaceutical were maintained in Dulbecco’s modified Eagle’s medium (DMEM, Gibco) supplemented with 10% v/v foetal beef serum (FBS, Gibco), 0.075% Sodium Bicarbonate (7.5% solution, Gibco) and 1X Pen-strep (Euroclone) and kept under 5% CO2 on 37 ◦C. The cells were seeded at 10 000 cells/well in 96-well black cell-treated plates (PerkinElmer). The following day, cells were incubated with the control compounds at different concentrations. Compound was dissolved in 0.1% DMSO. Seventy-two hours post infection the GPF signal, as direct index of cellular viability, was quantified by measuring the total-well fluorescence with a Victor 3 multiplate reader (PerkinElmer) set to excitation and emission wavelengths of 485 and 535 nm, respectively.
The percentage of induced cytopathic effects (CPE) was calculated considering the mock as 100% of cell viability, and the readout from empty wells as blank. The compound half-maximal cytopathic concentration (CC50), was determined via non-linear regression by using on Prism 9 v. 9.4.1 software (GraphPad) the built-in function dose-response inhibition, log-concentration-normalized response. Experimental points represent the average and standard deviation of at least two sets of independent triplicates.

SARS-CoV-2 nsp13 [4] = biological target: T1, SARS-CoV-2 nsp13; assay: SARS-CoV-2 nsp13 ATPase-associated activity (Biomol Green, BSA-TCEP); format: biochemical; conditions: for IC50: SARS-CoV-2 nsp13-associated ATPase activity, from dose-response curves
SARS-CoV-2 nsp13 [5] = biological target: T1, SARS-CoV-2 nsp13; conditions: cited from earlier work
SARS-CoV-2 = conditions: cited from earlier work
MERS-CoV = conditions: cited from earlier work
SARS-CoV-2 nsp13 [6] = biological target: T1, SARS-CoV-2 nsp13; conditions: SARS-CoV-2 nsp13-associated ATPase activity; cited from earlier work
Vero E6-GFP cells = conditions: cited from earlier work
HCoV229E = system: HCoV229E; set-up: method as in PMID 37562607; conditions: cited from earlier work
[7] = read-out: Activity in enzyme assay IC50 Unwinding BSA-TCEP
[8] = read-out: Activity in enzyme assay IC50 ATPase BSA-TCEP
[9] = read-out: EC50 antiviral activity
[10] = SARS-CoV-2 nsp13-associated unwinding activity, read-out: IC50 unwinding
[11] = SARS-CoV-2 infected cells, read-out: EC50 SARS-CoV-2 replication

## CC(C)c1ccc(Cn2cc(/C=C/C(=O)/C=C(\O)C(=O)O)c3ccccc32)cc1 [5c]
SARS-CoV-2 nsp13 [1]; 1 min after activation of the reaction with the substrate
  IC50: 0.76 µM
SARS-CoV-2 nsp13 [1]; 5 min after activation of the reaction with the substrate
  IC50: 1.64 µM
SARS-CoV-2 nsp13 [1]; 10 min after activation of the reaction with the substrate
  IC50: 2.75 µM
SARS-CoV-2 nsp13 [1]; 15 min after activation of the reaction with the substrate
  IC50: 2.94 µM
SARS-CoV-2 nsp13 [1]; 20 min after activation of the reaction with the substrate
  IC50: 2.76 µM
SARS-CoV-2 nsp13 [1]; from time-increased IC50 values
  nature of the inhibition: non-covalent/reversible
SARS-CoV-2 nsp13 [1]; pre-incubation extended to +20 min and +50 min at RT
  effect of extended pre-incubation of compound and enzyme on inhibitory potency: did not lead to an increase of the inhibitory potency
SARS-CoV-2 nsp13 [2]; [7]
  IC50: 4.73 ± 0.5 µM
[3]
  CC50 at 72 h: > 100 µM
SARS-CoV-2 nsp13 [4]; [8]
  IC50: 1.8 ± 0.19 µM
SARS-CoV-2 nsp13 [4]; ratio of IC50 values
  higher ATPase inhibition in respect to 4: 7 fold

## CCOC(=O)/C(O)=C/C(=O)c1cn(Cc2ccc(F)cc2)c2ccccc12 [8d, Ethyl (Z)-4-(1-(4-fluorobenzyl)-1H-indol-3-yl)-2-hydroxy-4-oxobut-2-enoate]
SARS-CoV-2 nsp13 [2]; Activity in enzyme assay IC50 Unwinding BSA-TCEP
  IC50: 1.73 ± 0.53 µM
[3]
  CC50 at 72 h: > 100 µM
SARS-CoV-2 nsp13 [4]; Activity in enzyme assay IC50 ATPase BSA-TCEP
  IC50: 8.7 ± 0.53 µM

## CC(C)=Cn1cc(/C=C/C(=O)/C=C(\O)C(=O)O)c2ccccc21 [9c, (2Z,5E)-2-hydroxy-6-(1-(2-methylprop-1-en-1-yl)-1H-indol-3-yl)-4-oxohexa-2,5-dienoic acid]
SARS-CoV-2 nsp13 [2]; [7]
  IC50: 1.56 ± 0.16 µM
[3]
  CC50 at 72 h: > 100 µM
SARS-CoV-2 nsp13 [4]; [8]
  IC50: > 30 µM
SARS-CoV-2 nsp13 [4]; measured at 30 µM, read-out: Percentage of enzymatic residual activity (ATPase)
  remaining activity at 30 µM: 98.6%

## C=CCn1c(CSc2ccccc2[N+](=O)[O-])n[nH]c1=S [SSYA10-001]
SARS-CoV-2 nsp13 [5]; SARS-CoV-2 nsp13, read-out: IC50 vs unwinding
  IC50: 7.5 µM
SARS-CoV-2; [9]
  EC50: 81 µM

## CC(C)=CCc1c(O)cc(O)c2c(=O)cc(-c3ccc(O)cc3)oc12 [compound 2, licoflavone C]
SARS-CoV-2; [9]
  EC50: > 100 µM

## CC(C)=CCn1cc(/C=C/C(=O)/C=C(\O)C(=O)O)c2ccccc21 [compound 3]
MERS-CoV
  EC50: 0.33 µM
SARS-CoV-2 nsp13 [6]
  IC50: 26.8 µM
SARS-CoV-2 nsp13 [5]; [10]
  IC50: 9.51 µM
SARS-CoV-2; [11]
  EC50: 4.54 µM
Vero E6-GFP cells
  CC50: > 264 µM
HCoV229E
  EC50: 0.54 µM

## O=C(/C=C(\O)C(=O)O)/C=C/c1cn(Cc2ccccc2)c2ccccc12 [compound 4]
MERS-CoV
  EC50: 6.32 µM
SARS-CoV-2 nsp13 [6]
  IC50: 12.8 ± 1.3 µM
SARS-CoV-2 nsp13 [5]; [10]
  IC50: 12.7 ± 4.9 µM
SARS-CoV-2; [11]
  EC50: 1.03 ± 0.24 µM
Vero E6-GFP cells
  CC50: > 264 µM
HCoV229E
  EC50: 1.83 µM

Reference: publication PMC12344683, “N-alkyl and N-benzyl indoles are anti-SARS-CoV-2 agents and nsp13 inhibitors” (Journal of Enzyme Inhibition and Medicinal Chemistry, 2025)
